Inhibition and inhibition in vivo data for 13 compounds are collected here from patent EP0006772A1, “Thieno and furopyridone derivatives, process for their preparation and medicinal preparations containing them” (OMNIUM FINANCIER AQUITAINE POUR L'HYGIENE ET LA SANTE - …, priority 1978, dated 1980).

Like-named read-outs stand apart in the source and are kept apart here.

Test [1] deals with agrégation plaquettaire à l'A.D.P. The test can be described thus: ADP-induced platelet aggregation in plasma of orally treated rats (ex vivo). On the set-up: species or system rats de souche Wistar. The following applies: Rattus norvegicus, 100 mg/kg oral, 3 hours after treatment, versus control, 10 µM A.D.P., read-out: Pourcentage d'inhibition A.D.P. The procedure:
(§1) Chez des rats de souche Wistar, on effectue un prélèvement sanguin dans la veine jugulaire. A partir de ce sang citraté et après centrifugation, on reconstitue un plasma contenant 600 000 ± 20 000 plaquettes par mm^3, qui servira dans toutes les mesures d'agrégation.
(§2) On place 0,4 ml de plasma dans un tube siliconé pourvu d'une barre aimantée elle-même siliconée. Le tube est introduit dans un agrégomètre couplé à un appareil permettant d'enregistrer les variations de densité optique. Lorsque la transmission de la lumière a atteint une valeur stable, on introduit dans le tube 0,5 ml d'une solution contenant 10 µM d'A.D.P. (Adénosine-Di Phosphate).
(§3) L'agrégation des plaquettes provoque alors une augmentation de la transmission lumineuse suivie d'une diminution consécutive à la phase de désagrégation.
(§4) La variation maximale de densité optique ainsi déterminée caractérise l'intensité de l'agrégation.
(§5) Différents lots de 20 rats sont uiilisés, chaque lot recevant un dérivé à tester par la vcie orale, à la dose de 100 mg/kg de poids corporel. Les résultats obtenus au cours de ces 2 essais sont rapportés dans le Tableau I suivant qui indique le pourcentage d'inhibition de l'agrégation plaquettaire obtenu, par rapport au témoin, 3 heures après le traitement par le médicament de l'invention, dans le test de l'A.D.P. et au collagène.

Test [2] deals with agrégation plaquettaire au collagène. Briefly: Collagen-induced platelet aggregation in plasma of orally treated rats (ex vivo). The following applies: Rattus norvegicus, 100 mg/kg oral, 3 hours after treatment, versus control, collagen (bovine tendon extract), read-out: Pourcentage d'inhibition Collagène. Also noted: species or system rats de souche Wistar. As to the method:
as §1, §2, §3, §4
La solution d'A.D.P. est remplacée par une solution de collagène (extrait de tendons bovins).
as §5

In test [3] the test system is oedème localisé provoqué par la carragénine. The test can be described thus: Carrageenan-induced localised paw oedema. The following applies: rat, 100 mg/kg oral (1 h before, at injection, 1 h and 2.5 h after). Type of test: in vivo. The procedure:
Une solution de carragénine (0,1 ml) à 1 % est injectée dans les fléchisseurs métatarsiens de la patte postérieure droite du rat au temps O. Les animaux du lot traité reçoivent en outre, par la voie orale, 100 mg par kg du dérivé à tester respectivement 1 heure avant, en même temps que l'injection de l'agent phlogogène, puis 1 heure et 2 heures et demi après. Les mesures qui sont effectuées à l'aide du micromètre de ROCH aux temps 0, 1 heure, 2 heures, 3 heures et 5 heures après l'administration de la carragénine permettent de déterminer, en fonction du temps, le pourcentage d'activité anti-inflammatoire par comparaison avec le lot témoin.
(In general: Carrageenan injected into the paw causes an acute inflammation.)

Test [4] has as its system oedème généralisé à l'ovalbumine. The test can be described thus: Ovalbumin-induced generalised oedema. The following applies: po, rat, 100 mg/kg per os 1 h before and together with ovalbumin. Type of test: in vivo. The procedure:
Une injection intrapéritonéale simultanée de 1 ml d'ovalbumine et de 0,5 ml d'une solution aqueuse de bleu Evans à 1 % est effectuée sur le rat. D'autre part, on administre per os aux animaux du lot traité 100 mg/kg du dérivé à tester 1 heure avant et en même temps que l'ovalbumine. L'intensité du phénomène ainsi provoqué est notée par un chiffre allant de 1 à 5 suivant la progression du syndrome inflammatoire. On détermine ainsi la moyenne de l'intensité oedémateuse et le pourcentage de diminution de la réaction oedémateuse par rapport au témoin, en fonction du temps.
Les pourcentages d'activité anti-inflammatoire obtenus à la 2ème heure et 3ème heure après l'injection d'ovalbumine sont consignés dans le Tableau III suivant.

[5] abbreviates: 1 h after carrageenan, read-out: pourcentage d'activité anti-inflammatoire Ière heure.
The mark [6] stands for this setting: 2 h after carrageenan, read-out: pourcentage d'activité anti-inflammatoire 2ème heure.
The mark [7] stands for this setting: 3 h after carrageenan, read-out: pourcentage d'activité anti-inflammatoire 3ème heure.
Setting [8] is: 5 h after carrageenan, read-out: pourcentage d'activité anti-inflammatoire 5ème heure.
Where [9] appears, read: 2 h after ovalbumin injection, read-out: Pourcentage d'activité anti-inflammatoire 2ème heure.
Setting [10] is: 3 h after ovalbumin injection, read-out: Pourcentage d'activité anti-inflammatoire 3ème heure.

As for `O=c1[nH]c(-c2ccccc2)cc2sccc12` [dérivé 1, Phényl-6 thiéno(3,2-c)pyridone-4], the inhibition – broadly, the change of the read-out against control, counted positive when it falls – at 100 mg/kg in test [1] came to 62%; in test [2], 91.4%. Moreover, the inhibition in vivo at 100 mg/kg in test [3] (setting [5]) was found to be 35%; in test [3] (setting [6]), 39%; in test [3] (setting [7]), 45%; in test [3] (setting [8]) it was 49%; in test [4] (setting [9]) it was 45%; in test [4] (setting [10]), 52%.
Regarding `O=c1[nH]c(-c2ccc(F)cc2)cc2sccc12` [dérivé 2, p-fluorophényl-6 thiéno(3,2-c)pyridone-4], the inhibition at 100 mg/kg was 60.5% in test [1] and 91.7% in test [2]. Also, the inhibition in vivo at 100 mg/kg was 37% in test [3] (setting [5]); 41% in test [3] (setting [6]); 46% in test [3] (setting [7]); 50% in test [3] (setting [8]); 48% in test [4] (setting [9]); 54% in test [4] (setting [10]).
For the compound `O=c1[nH]c(-c2ccccc2Cl)cc2sccc12` [dérivé 3, o-chlorophényl-6 thiéno(3,2-c)pyridone-4], the inhibition at 100 mg/kg in test [1] was 58.8%; in test [2] it was 92%. In addition, the inhibition in vivo at 100 mg/kg in test [3] (setting [5]) was 37%; in test [3] (setting [6]), 40%; in test [3] (setting [7]), 45%; in test [3] (setting [8]), 48%; in test [4] (setting [9]), 48%; in test [4] (setting [10]) it was 55%.
Regarding `O=c1[nH]c(-c2ccc(Cl)cc2)cc2sccc12` [dérivé 4, p-chlorophényl-6 thiéno(3,2-c)pyridone-4], the values for the inhibition at 100 mg/kg in test [1] and in test [2] were 61.2% and 90.5%, respectively. In addition, the inhibition in vivo at 100 mg/kg in test [3] (setting [5]) amounted to 41%; in test [3] (setting [6]) it was 44%; in test [3] (setting [7]), 48%; in test [3] (setting [8]) it was 52%; in test [4] (setting [9]), 47%; in test [4] (setting [10]), 53%.
On to `Cc1ccc(-c2cc3sccc3c(=O)[nH]2)cc1` [dérivé 5, p-tolyl-6 thiéno(3,2-c)pyridone-4], for which the values for the inhibition at 100 mg/kg in test [1] and in test [2] were 62.6% and 91.4%, respectively. Further, the inhibition in vivo at 100 mg/kg in test [3] (setting [5]) is 38%; in test [3] (setting [6]), 41%; in test [3] (setting [7]) it was 46%; in test [3] (setting [8]), 51%; in test [4] (setting [9]), 50%; in test [4] (setting [10]), 55%.
Regarding `COc1ccc(-c2cc3sccc3c(=O)[nH]2)cc1` [dérivé 6, p-méthoxyphényl-6 thiéno(3,2-c)pyridone-4], the values for the inhibition at 100 mg/kg in test [1] and in test [2] were 62.2% and 91.7%, respectively. Besides, the inhibition in vivo at 100 mg/kg came to 40% in test [3] (setting [5]); 43% in test [3] (setting [6]); 49% in test [3] (setting [7]); 52% in test [3] (setting [8]); 52% in test [4] (setting [9]); 58% in test [4] (setting [10]).
`COc1ccc(-c2cc3sccc3c(=O)[nH]2)cc1OC` [dérivé 7, (diméthoxy-3,4 phényl)-6 thiéno(3,2-c)pyrido-ne-4]: the values for the inhibition at 100 mg/kg in test [1] and in test [2] were 61.7% and 90.6%, respectively. Further, the inhibition in vivo at 100 mg/kg in test [3] (setting [5]) was 40%; in test [3] (setting [6]), 44%; in test [3] (setting [7]) it was 48%; in test [3] (setting [8]) it was 51%; in test [4] (setting [9]), 48%; in test [4] (setting [10]), 55%.
In the case of `COc1cc(-c2cc3sccc3c(=O)[nH]2)cc(OC)c1OC` [dérivé 8, (triméthoxy-3,4,5 phényl)-6 thiéno(3,2-c)py-ridone-4], the results for the inhibition at 100 mg/kg in test [1] and in test [2] were 60.4% and 92.2%, respectively. In addition, the inhibition in vivo at 100 mg/kg in test [3] (setting [5]) was found to be 36%; in test [3] (setting [6]), 39%; in test [3] (setting [7]), 45%; in test [3] (setting [8]) it was 59%; in test [4] (setting [9]) it was 46%; in test [4] (setting [10]), 53%.
For `O=c1[nH]c(-c2ccccc2[N+](=O)[O-])cc2sccc12` [dérivé 9, o-nitrophényl-6 thiéno(3,2-c)pyridone-4], the inhibition at 100 mg/kg stood at 59.1% in test [1] and 90.8% in test [2]. Moreover, the inhibition in vivo at 100 mg/kg was 38% in test [3] (setting [5]); 41% in test [3] (setting [6]); 46% in test [3] (setting [7]); 50% in test [3] (setting [8]); 46% in test [4] (setting [9]); 52% in test [4] (setting [10]).
Turning to `O=c1[nH]c(-c2ccc([N+](=O)[O-])cc2)cc2sccc12` [dérivé 10, p-nitrophényl-6 thiéno(3,2-c)pyridone-4], the inhibition at 100 mg/kg in test [1] was 60.4%; in test [2], 90.2%. Further, the inhibition in vivo at 100 mg/kg in test [3] (setting [5]) is 41%; in test [3] (setting [6]), 45%; in test [3] (setting [7]) it was 51%; in test [3] (setting [8]) it was 53%; in test [4] (setting [9]) it was 49%; in test [4] (setting [10]), 55%.
For the compound `O=c1[nH]c(-c2cccc(C(F)(F)F)c2)cc2sccc12` [dérivé 11, m-trifluorométhylphényl-6 thiéno(3,2-c)pyri-done-4], the inhibition at 100 mg/kg in test [1] worked out at 60.1%; in test [2], 90.7%. Also, the inhibition in vivo at 100 mg/kg in test [3] (setting [5]) turned out to be 40%; in test [3] (setting [6]) it was 44%; in test [3] (setting [7]) it was 49%; in test [3] (setting [8]), 52%; in test [4] (setting [9]) it was 51%; in test [4] (setting [10]), 57%.
Consider `O=c1[nH]c(-c2ccccc2)cc2sc(Cl)cc12` [dérivé 12, Chloro-2 phényl-6 thiéno(3,2-c)pyridone-4], for which the inhibition at 100 mg/kg was 60.6% in test [1] and 91.4% in test [2]. The inhibition in vivo at 100 mg/kg was 36% in test [3] (setting [5]); 40% in test [3] (setting [6]); 46% in test [3] (setting [7]); 50% in test [3] (setting [8]); 45% in test [4] (setting [9]); 52% in test [4] (setting [10]).
Regarding `Cc1cc2c(=O)[nH]c(-c3ccccc3)cc2s1` [dérivé 13, Méthyl-2 phényl-6 thiéno(3,2-c)pyridone-4], the inhibition at 100 mg/kg turned out to be 61.5% in test [1] and 90.5% in test [2]. Besides, the inhibition in vivo at 100 mg/kg in test [3] (setting [5]) was 38%; in test [3] (setting [6]) it was 42%; in test [3] (setting [7]), 47%; in test [3] (setting [8]) it was 50%; in test [4] (setting [9]), 46%; in test [4] (setting [10]), 53%.
